{
  "source": "patent US20030129188A1",
  "about": "“Integrin targeting compounds” (The Scripps Research Institute, priority 2001, published 2003)",
  "origin": "cited, not measured here",
  "settings": "more potent than doxorubicin itself",
  "data": [
    {"smiles": "COc1cccc2c1C(=O)c1c(O)c3c(c(O)c1C2=O)C[C@@](O)(C(=O)CO)C[C@@H]3O[C@H]1C[C@H](N2C=CCC2)[C@H](O)[C@H](C)O1", "note": "[2-pyrrolinodoxorubicin]", "values": [
      {"measurement": "potency relative to doxorubicin", "result": "500-1000 times"}
    ]}
  ]
}
